Key:
KKA^y mice = test: Total cholesterol lowering action and plasma anti-arteriosclerosis index enhancing action in mice (Test Example 2); format: in vivo; conditions: Mus musculus, po, 96 h, 0.01% in powdery diet, four days
Source text: Test compounds were mixed in a powdery diet (CE-2, Japan Clea) the concentration of 0.01% (compounds of Examples 7, 26, 29 and 32) or 0.005% (compounds of Examples 1, 11, 15, 18, 24, 36, 37, 41, 48, 50, 51, 52, 58, 62, 79, 88, 91, 92, 93, 97, 107, 110, 129 and 130), and freely given to KKA^y mice (11 to 12 weeks old, 5 mice per group), a model of type-2 diabetes mellitus, for four days. During this period, water was given freely. Blood was sampled from orbital venous plexus and components were analyzed using the plasma separated from the blood. Total cholesterol levels were determined by using L type Wako Cholesterol (Wako Pure Chemical Industries, Ltd). Precipitation reagent for HDL cholesterol (Wako Pure Chemical Industries, Ltd.) was added to a part of the plasma to precipitate non-HDL lipoprotein, and cholesterol (HDL cholesterol) in the resulting supernatant was determined. The plasma anti-arteriosclerosis index [(HDL cholesterol/total cholesterol)×100] was calculated by using these cholesterol levels.
In the Table, “Total cholesterol lowering action (%)” represents the percent reduction (%) of total cholesterol level in the test compound administration group, when the total cholesterol level in the test compound non-administration group is taken as 100%. “Plasma anti-arteriosclerosis index-enhancing action (%)” represents the percent increase (%) of plasma anti-arteriosclerosis index in the test compound administration group, when the plasma anti-arteriosclerosis index in the test compound non-administration group is taken as 100%.

- melting point: 101 to 102 °C
Compound: Cc1oc(-c2ccccc2)nc1COc1cccc(COc2cccc(CC(=O)O)c2)c1 [Example 32, 2-[[3-[3-(5-methyl-2-phenyl-4-oxazolyl)methoxy]benzyloxy]phenyl]acetic acid]
- change in vivo at 0.01 % (KKA^y mice; percent increase of [(HDL cholesterol/total cholesterol)×100] vs non-administration group): 10%
- inhibition in vivo at 0.01 % (KKA^y mice; percent reduction of plasma total cholesterol level vs non-administration group): 2%

— US7238716B2, “Alkanoic acid derivatives process for their production and use thereof” (Takeda Pharmaceuticals Company Limited, priority 2000, dated 2007)
